US20240092768A1, “CRYSTAL FORM OF ANTI-INFLUENZA VIRUS COMPOUND, PREPARATION METHOD FOR CRYSTAL FORM, AND USE OF CRYSTAL FORM” (XIZANG HAISCO PHARMACEUTICAL CO., LTD., priority 2021, published 2024)

Experiments:
[1] = hygroscopicity experiment, dynamic vapor sorption (DVS); type: physicochemical; conditions: 25° C.
[2] = experiment of crystal form transformation in water; type: physicochemical; conditions: room temperature, stirring of magma for 7 days, XRPD
IFVA/Mal/302/54 = experiment: cytopathic effect (CPE) antiviral assay in MDCK cells, IFVA/Mal/302/54; type: cell-based, influenza viruses; conditions: 120 h, CPE method, 5 days, CCK-8 cell viability
IFVA/Weiss/43 = experiment: cytopathic effect (CPE) antiviral assay in MDCK cells, IFVA/Weiss/43; type: cell-based, influenza viruses; conditions: 120 h, CPE method, 5 days, CCK-8 cell viability
IFV A/PR/8/34 = experiment: cytopathic effect (CPE) antiviral assay in MDCK cells, IFV A/PR/8/34; type: cell-based, influenza viruses; conditions: 120 h, CPE method, 5 days, CCK-8 cell viability

SMILES	weight change in a range of 0% RH to 80% RH [1]	crystal form after stirring of magma in water [2]	weight change in a range of 0% RH to 80% RH ([1]; listed as amorphous form of the compound A)	EC50 (IFVA/Mal/302/54) [nM]	EC50 (IFVA/Weiss/43) [nM]	EC50 (IFV A/PR/8/34) [nM]
Cc1nnn([C@@H](c2ccccc2)C2CCN(C(=O)c3cc(-c4nc5cc(NC(=O)[C@@H]6C[C@@H]6F)ccc5o4)ccn3)CC2)n1 [crystal form I, (1S,2S)-2-fluoro-N-(2-(2-(4-((R)-(5-methyl-2H-tetrazol-2-yl)(phenyl)methyl)piperidine-1-carbonyl)pyridin-4-yl)benzo[d]oxazol-5-yl)cyclopropane-1-carboxamide]	approximately 0.3%	remained unchanged after the magma				
Cc1nnn([C@@H](c2ccccc2)C2CCN(C(=O)c3cc(-c4nc5cc(NC(=O)[C@@H]6C[C@@H]6F)ccc5o4)ccn3)CC2)n1 [Compound A, (1S,2S)-2-fluoro-N-(2-(2-(4-((R)-(5-methyl-2H-tetrazol-2-yl)(phenyl)methyl)piperidine-1-carbonyl)pyridin-4-yl)benzo[d]oxazol-5-yl)cyclopropane-1-carboxamide]			approximately 3.8%	14	3	12
